In patent publication US9492368B2, “External preparation for skin” (HAYASHIBARA CO., LTD., priority 2011, dated 2016):
Marks after values point to notes of the source that are not given here.

Legend:
[1] = Solubility of glucosyladenosines in water (maximum dissolved concentration, HPLC); format: physicochemical
Description: As a basic property, the solubilities in water of the glucosyladenosines of the present invention were compared with that of adenosine. The 5′-glucosyladenosine prepared in Experiment 1-2 and the 3′-glucosyladenosine prepared in Experiment 2 were determined for solubility in water, and they were compared with that of adenosine. One hundred milligrams of 5′-glucosyladenosine or 3′-glucosyladenosine (these compounds may be collectively called glucosyladenosines, hereinafter) was dissolved in 500 μl of pure water at an ambient temperature (25° C.). While, five milligrams of adenosine was dissolved in 500 μl of pure water at an ambient temperature (25° C.). […] The filtrate was fed to HPLC under the following conditions, followed by determining the respective contents of glucosyladenosines and adenosine based on the peak areas appeared on a chromatogram by an ultraviolet detector, and calculating their concentrations as maximum dissolved concentrations at an ambient temperature (25° C.). The same samples were allowed to stand at a 4° C. cold room for one month and centrifuged, followed by quantifying the contents of glucosyladenosines and adenosine in the resulting supernatants similarly as above to determine their maximum dissolved concentrations at 4° C.
<Conditions for HPLC Analysis>
Apparatus: SHIMADZU UV-VIS DETECTOR SPD-10AV (a detector), LC-10AT (a pump), C-R8A (a recorder), and SIL-20AC (an autosampler);
Mobile phase: (0.1 v/v % aqueous acetic acid solution)/(methanol)=96/4 (v/v),
Detection wavelength: 260 nm,
Injection volume: 20 μl, and
Column temperature: 40° C.

profilaggrin (PFG) = assay: Real-time PCR gene expression in NHEK cells: profilaggrin; format: cell-based, human; settings: 1 μM, seven days, relative to control = 1.00
Description: (§1) Since glucosyladenosines were confirmed in Experiment 5 to have an action of enhancing the differentiation of keratinocytes effective for skin improvement, a test for examining the change of the expression level of a molecular marker gene of keratinocytes, as an index, was performed as follows using a real-time PCR analysis method to examine the above action in more detail. The expression level of a ceramide-synthesis-related gene was also studied to examine the influence of glucosyladenosines on ceramide synthesis that had been known to have an important role in moisturizing the skin and barrier function of the skin and deemed to be effective for skin improvement. As genes for analysis, profilaggrin (PFG: a later differentiation marker) and involucrin (INV: an early differentiation marker) as differentiation markers of keratinocytes and β-glucocerebrosidase (GCase) and sphingomyelinase (SMase) as ceramide-synthesis-related enzymes were selected, and a gene for cyclophilin B (CypB) as an internal standard upon practicing PCR reaction was used (see FIG. 7). NHEK cells were inoculated to 6-well plate coated with collagen in an amount of 8×10^4 cells/1.5 ml/well, cultured with EpiLife medium, and cultured at 37° C. for two days under a 5 v/v % CO2 condition. Thereafter, the culture medium was removed, and the resulting cells were added with a fresh EpiLife medium containing 5′-glucosyladenosine, 3′-glucosyladenosine, or adenosine in a volume of 1.5 ml/well (giving a final concentration of 1 μM of any one of glucosyladenosines and adenosine), and cultured for seven days while replacing the medium with a fresh one containing any one of glucosyladenosines and adenosine in a volume of 1.5 ml/well every other day. After completion of the culture, each well was washed twice with PBS(K−), followed by adding 0.2 ml/well of 0.025% by mass of trypsin/EDTA solution to the resulting cells and allowing the cells to stand at an ambient temperature for five minutes to detach them from the plates. […]

involucrin (INV) = assay: Real-time PCR gene expression in NHEK cells: involucrin; format: cell-based, human; settings: 1 μM, seven days, relative to control = 1.00
Description: as §1

[2] = system: β-glucocerebrosidase (GCase); assay: Real-time PCR gene expression in NHEK cells: β-glucocerebrosidase; format: cell-based, human; settings: 1 μM, seven days, relative to control = 1.00
Description: as §1

[3] = system: three-dimensional skin model (EPI-200 Kit); assay: Cytotoxicity: LDH release from three-dimensional skin model; format: cell-based; settings: 18 hours, control = 1.0
Description: To examine whether glucosyladenosines are successively applied to the skin as ingredients for sustainable external dermal agents, they were examined for cytotoxicity. The strengths of cytotoxicity of glucosyladenosines were examined with an index of […] (LDH) that is released when cell are damaged, as an influence of glucosyladenosines and adenosine on three dimensional skin. […] A system, to which 30% ethanol with no glucosyladenosines and adenosine was added, was provided as a control. For the collected media, the activity of […] (LDH) released from each skin model was assayed on “CYTOTOXICITY DETECTION KIT (LDH)”, a product name of Hoffmann-La Roche Ltd., Basel, Switzerland, and calibrated for obtaining a relative LDH activity by regarding the LDH activity of the control as 1.0 in order to evaluate the cytotoxicity for each sample.

SMILES	Maximum dissolved concentration ([1]; 4° C., one month) [w/v %]	Maximum dissolved concentration ([1]; 25° C., one day) [w/v %]	Gene expression level PFG (profilaggrin (PFG))	Gene expression level INV (involucrin (INV))	Gene expression level GCase [2]	Relative LDH activity ([3]; concentration 5%)	Relative LDH activity ([3]; concentration 0.1%)	Relative LDH activity ([3]; concentration 1%)
Nc1ncnc2c1ncn2[C@@H]1O[C@H](CO)[C@@H](O[C@H]2O[C@H](CO)[C@@H](O)[C@H](O)[C@H]2O)[C@H]1O [3′-Glucosyladenosine, α-D-glucopyranosyl-(1→3′)-adenosine]	2	2	2.03*	1.52*	2.08*	0.99	–	–
Nc1ncnc2c1ncn2[C@@H]1O[C@H](CO[C@H]2O[C@H](CO)[C@@H](O)[C@H](O)[C@H]2O)[C@@H](O)[C@H]1O [5′-Glucosyladenosine, α-D-glucopyranosyl-(1→5′)-adenosine]	> 15.7	> 16.1	2.54**	1.66**	2.68**	0.79	–	–
Nc1ncnc2c1ncn2[C@@H]1O[C@H](CO)[C@@H](O)[C@H]1O [Adenosine, reference compound]	0.4	0.8	1.41	1.15	1.37	–	1.38	3.68
